Test results: US20040010001A1, “Methods and compositions for modulating cell proliferation and cell death” (priority 1999, published 2004)
Like-named read-outs stand apart in the source and are kept apart here.

What was measured:
Assay type in all cases: cell-based
[1] = tested on: rat primary tumors, histocultures; assay: Drug effect in histocultures of rat primary tumors (inhibition of 3H-thymidine incorporation)
[2] = tested on: rat lymph node metastasis cells, monolayers; assay: Drug effect in monolayers of rat lymph node metastasis cells (inhibition of bromodeoxyuridine incorporation); details: 96 h, read-out: Concentration producing 50% inhibition
[3] = tested on: Human prostate PC3 tumor cells; assay: aFGF/bFGF-induced resistance and reversal by suramin, sulforhodamine B assay
Method: The experimental conditions are described briefly below. […] Cell number was measured using the sulforhodamine B assay which measures the total protein concentration. […] The FGF-induced resistance was dependent on the FGF concentrations, with a higher resistance at higher FGF concentrations.

Human colon HT-29 = assay: FGF-induced resistance, inhibition of BrdU incorporation; details: read-out: Drug concentration needed to produce 50% inhibition
How it was run: (§1)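 Monolayers were pretreated for 96 h with human recombinant aFGF and/or bFGF in medium with 1% FBS (protein adjusted to 2 mg/ml, renewed every other day) and then drug-treated for 96 h. Antiproliferative effect was read as inhibition of BrdU incorporation.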

Human lung A459 = assay: as above; details: read-out: Drug concentration needed to produce 50% inhibition
How it was run: as §1

Human prostate PC3 = assay: as above; details: Homo sapiens, read-out: Drug concentration needed to produce 50% inhibition
How it was run: as §1

[4] = tested on: Human breast BC19 (subline of MCF7 transfected with mdr1); assay: as above; details: read-out: Drug concentration needed to produce 50% inhibition
How it was run: as §1

Human breast MCF7 = assay: as above; details: read-out: Drug concentration needed to produce 50% inhibition
How it was run: as §1

Human pharynx FaDu = assay: as above; details: read-out: Drug concentration needed to produce 50% inhibition
How it was run: as §1

Rat prostate MAT-LyLu = assay: as above; details: read-out: Drug concentration needed to produce 50% inhibition
How it was run: as §1

[5] = tested on: rat primary tumor cells, monolayers; assay: Drug effect in monolayers of rat primary tumor cells (inhibition of bromodeoxyuridine incorporation); details: 96 h, read-out: Concentration producing 50% inhibition
[6] = tested on: rat lung metastasis cells, monolayers; assay: Drug effect in monolayers of rat lung metastasis cells (inhibition of bromodeoxyuridine incorporation); details: 96 h, read-out: Concentration producing 50% inhibition
[7] = no suramin, relative to control
[8] = 96 h, r-aFGF + r-bFGF 0.04 ± 1 ng/ml
[9] = 96 h, r-aFGF + r-bFGF 0.08 ± 1 ng/ml
[10] = 96 h, r-aFGF + r-bFGF 0.64 ± 1 ng/ml
[11] = 96 h, r-aFGF + r-bFGF 1 ± 1 ng/ml

**Q.** What does the source list for CC(=O)O[C@H]1C(=O)[C@@]2(C)[C@H]([C@H](OC(=O)c3ccccc3)[C@]3(O)C[C@H](OC(=O)[C@H](O)[C@@H](NC(=O)c4ccccc4)c4ccccc4)C(C)=C1C3(C)C)[C@]1(OC(C)=O)CO[C@@H]1C[C@@H]2O [Paclitaxel]?
**A.** inhibition at 10 µM [1]: < 50%; IC30 (concentration producing 30% inhibition) ([1]; 24 h, read-out: Concentration producing 50% inhibition (data shown are the concentrations that produced 30% inhibition)): > 14 nM; IC50 ([2]; Monolayers (passage 0)): 32.9 ± 3.6 nM; IC50 ([2]; Monolayers (passage 1)): 21.8 ± 0.9 nM; IC50 ([2]; Monolayers (passage 2)): 15 ± 0.9 nM; IC50 ([2]; Monolayers (passage 3)): 11.7 ± 0.3 nM; IC50 ([3]; Homo sapiens, read-out: IC50, Control (drug treatment only, without FGF treatment), No suramin, drug 96 hours): 2.16 nM; IC50 ([3]; Homo sapiens, read-out: IC50, aFGF 0.3 ng/ml + bFGF 1 ng/ml, No suramin, FGF pretreatment 96 hours, drug 96 hours): 6.53 nM; IC50 ([3]; Homo sapiens, read-out: IC50, aFGF 1 ng/ml + bFGF 3 ng/ml, No suramin, FGF pretreatment 96 hours, drug 96 hours): 12.1 nM; Resistance, Folds, aFGF 0.3 ng/ml + bFGF 1 ng/ml [3, 7]: 3.02 Folds; Resistance, Folds, aFGF 1 ng/ml + bFGF 3 ng/ml [3, 7]: 5.59 Folds; IC50 ([3]; read-out: IC50, Control (without FGF treatment), Suramin, 15 μM, drug 96 hours with 15 μM suramin): 2.13 nM; IC50 ([3]; read-out: IC50, aFGF 0.3 ng/ml + bFGF 1 ng/ml, With suramin, FGF pretreatment 96 hours, drug 96 hours with 15 micromolar suramin): 1.88 nM; IC50 ([3]; read-out: IC50, aFGF 1 ng/ml + bFGF 3 ng/ml, With suramin, FGF pretreatment 96 hours, drug 96 hours with 15 micromolar suramin): 2.01 nM; IC50 (Human colon HT-29; HT-29, 96 h, r-aFGF + r-bFGF 0 ng/ml): 2.2 nM; IC50 (Human colon HT-29; HT-29, 96 h, r-aFGF + r-bFGF 0.04 ± 1 ng/ml): 2 nM; IC50 (Human colon HT-29; HT-29, 96 h, r-aFGF + r-bFGF 0.08 ± 1 ng/ml): 2 nM; IC50 (Human colon HT-29; HT-29, 96 h, r-aFGF + r-bFGF 0.16 ± 1 ng/ml): 2.1 nM; IC50 (Human colon HT-29; HT-29, 96 h, r-aFGF + r-bFGF 0.64 ± 1 ng/ml): 6.2 nM; IC50 (Human colon HT-29; HT-29, r-aFGF 0 ng/ml): 2.1 nM; IC50 (Human colon HT-29; HT-29, r-aFGF 1 ng/ml): 2 nM; IC50 (Human colon HT-29; HT-29, r-aFGF 10 ng/ml): 1.9 nM; IC50 (Human colon HT-29; HT-29, r-aFGF 50 ng/ml): 2 nM; IC50 (Human colon HT-29; HT-29, r-aFGF + r-bFGF 1 ± 1 ng/ml): 10.8 nM; IC50 (Human colon HT-29; HT-29, r-bFGF 0 ng/ml): 2.1 nM; IC50 (Human colon HT-29; HT-29, r-bFGF 1 ng/ml): 2 nM; IC50 (Human colon HT-29; HT-29, r-bFGF 10 ng/ml): 1.9 nM; IC50 (Human colon HT-29; HT-29, r-bFGF 50 ng/ml): 2 nM; IC50 (Human lung A459; A459, r-bFGF 0 ng/ml): 0.87 nM; IC50 (Human lung A459; A459, r-bFGF 1 ng/ml): 0.9 nM; IC50 (Human lung A459; A459, r-bFGF 10 ng/ml): 1.07 nM; IC50 (Human lung A459; A459, r-bFGF 50 ng/ml): 1.22 nM; IC50 (Human prostate PC3; 96 h, r-aFGF + r-bFGF 0 ng/ml): 1.2 nM; IC50 (Human prostate PC3; [8]): 1.2 nM; IC50 (Human prostate PC3; [9]): 2.1 nM; IC50 (Human prostate PC3; [10]): 5.8 nM; IC50 (Human prostate PC3; [11]): 6.9 nM; IC50 (Human prostate PC3; 96 h, r-aFGF + r-bFGF): 3.1 nM; IC50 (Human prostate PC3; r-aFGF 0 ng/ml): 1.2 nM; IC50 (Human prostate PC3; r-aFGF 1 ng/ml): 1.2 nM; IC50 (Human prostate PC3; r-aFGF 10 ng/ml): 1.1 nM; IC50 (Human prostate PC3; r-aFGF 50 ng/ml): 1.2 nM; IC50 (Human prostate PC3; r-bFGF 0 ng/ml): 1.2 nM; IC50 (Human prostate PC3; r-bFGF 1 ng/ml): 1.2 nM; IC50 (Human prostate PC3; r-bFGF 10 ng/ml): 2.1 nM; IC50 (Human prostate PC3; r-bFGF 50 ng/ml): 3.3 nM; IC50 ([4]; r-bFGF 0 ng/ml): 59.6 nM; IC50 ([4]; r-bFGF 0.01 ng/ml): 112 nM; IC50 ([4]; r-bFGF 0.1 ng/ml): 183 nM; IC50 ([4]; r-bFGF 1 ng/ml): 236 nM; IC50 (Human breast MCF7; MCF7, r-bFGF 0 ng/ml): 0.32 nM; IC50 (Human breast MCF7; MCF7, r-bFGF 0.01 ng/ml): 0.45 nM; IC50 (Human breast MCF7; MCF7, r-bFGF 0.1 ng/ml): 0.84 nM; IC50 (Human breast MCF7; MCF7, r-bFGF 1 ng/ml): 1.3 nM; IC50 (Human pharynx FaDu; 96 h, r-aFGF + r-bFGF 0 ng/ml): 0.82 nM; IC50 (Human pharynx FaDu; [8]): 0.84 nM; IC50 (Human pharynx FaDu; [9]): 0.82 nM; IC50 (Human pharynx FaDu; 96 h, r-aFGF + r-bFGF 0.16 ± 1 ng/ml): 0.81 nM; IC50 (Human pharynx FaDu; 96 h, r-aFGF + r-bFGF 0.32 ± 1 ng/ml): 0.84 nM; IC50 (Human pharynx FaDu; [10]): 2.01 nM; IC50 (Human pharynx FaDu; [11]): 3.5 nM; IC50 (Human pharynx FaDu; r-aFGF 0 ng/ml): 0.82 nM; IC50 (Human pharynx FaDu; r-aFGF 1 ng/ml): 0.8 nM; IC50 (Human pharynx FaDu; r-aFGF 10 ng/ml): 0.82 nM; IC50 (Human pharynx FaDu; r-aFGF 50 ng/ml): 0.83 nM; IC50 (Human pharynx FaDu; r-bFGF 0 ng/ml): 0.77 nM; IC50 (Human pharynx FaDu; r-bFGF 1 ng/ml): 0.79 nM; IC50 (Human pharynx FaDu; r-bFGF 10 ng/ml): 0.74 nM; IC50 (Human pharynx FaDu; r-bFGF 50 ng/ml): 0.82 nM; IC50 (Rat prostate MAT-LyLu; r-bFGF 0 ng/ml): 12.7 nM; IC50 (Rat prostate MAT-LyLu; r-bFGF 1 ng/ml): 16.3 nM; IC50 (Rat prostate MAT-LyLu; r-bFGF 10 ng/ml): 47.8 nM; IC50 (Rat prostate MAT-LyLu; r-bFGF 50 ng/ml): 214 nM; IC50 ([5]; Monolayers (passage 0)): 10.7 ± 0.5 nM; IC50 ([5]; Monolayers (passage 1)): 10.5 ± 0.5 nM; IC50 ([5]; Monolayers (passage 2)): 10.3 ± 0.8 nM; IC50 ([5]; Monolayers (passage 3)): 10 ± 0.2 nM; IC50 ([6]; Monolayers (passage 0)): 92.4 ± 6.9 nM; IC50 ([6]; Monolayers (passage 1)): 28.1 ± 0.7 nM; IC50 ([6]; Monolayers (passage 2)): 21.5 ± 3.7 nM; IC50 ([6]; Monolayers (passage 3)): 11.4 ± 0.7 nM
